Test results: patent US4341784A, “Naphthyridine derivatives” (priority 1979, dated 1982)
Values after ≈ are worked out from the molar mass of the structure shown. Read-outs that look alike come from different tables or passages of the source.

Legend:
[1] = tested on: Corynebacterium pyogenes C-21; experiment: In vitro antibacterial activity (MIC, agar dilution method); assay type: cell-based
Experimental: (§1) The minimum inhibitory concentrations (MIC, μg/ml) of the following compounds in vitro were measured by the agar dilution method of [Chemotherapy, Vol. 22, No. 16, page 1126 (1974)].

[2] = tested on: Enterobacter cloacae P-2540; experiment: as above; assay type: cell-based
Experimental: as §1

[3] = tested on: Escherichia coli NIHJ JC-2; experiment: as above; assay type: cell-based
Experimental: as §1

Escherichia coli P-140a = experiment: as above; assay type: cell-based; details: read-out: minimum inhibitory concentration (MIC)
Experimental: as §1

Escherichia coli P-5101 [4] = experiment: as above; assay type: cell-based
Experimental: as §1

[5] = tested on: Klebsiella pneumoniae No. 13; experiment: as above; assay type: cell-based
Experimental: as §1

Proteus mirabilis P-2381 = experiment: as above; assay type: cell-based
Experimental: as §1

Proteus morganii Kono = experiment: as above; assay type: cell-based; details: Morganella morganii, read-out: minimum inhibitory concentration (MIC)
Experimental: as §1

[6] = tested on: Pseudomonas aeruginosa No. 12; experiment: as above; assay type: cell-based
Experimental: as §1

[7] = tested on: Pseudomonas aeruginosa Tsuchiijima; experiment: as above; assay type: cell-based; details: read-out: minimum inhibitory concentration (MIC)
Experimental: as §1

[8] = tested on: Salmonella enteritidis No. 1891; experiment: as above; assay type: cell-based; details: Salmonella enterica, read-out: minimum inhibitory concentration (MIC)
Experimental: as §1

[9] = tested on: Salmonella typhimurium S-9; experiment: as above; assay type: cell-based; details: Salmonella enterica, read-out: minimum inhibitory concentration (MIC)
Experimental: as §1

[10] = tested on: Serratia marcescens IFO 3736; experiment: as above; assay type: cell-based
Experimental: as §1

Shigella flexneri 2a = experiment: as above; assay type: cell-based; details: read-out: minimum inhibitory concentration (MIC)
Experimental: as §1

[11] = tested on: Shigella flexneri 4a P-330; experiment: as above; assay type: cell-based; details: 4AP330, read-out: minimum inhibitory concentration (MIC)
Experimental: as §1

[12] = tested on: Staphylococcus aureus 209P JC-1; experiment: as above; assay type: cell-based; details: read-out: minimum inhibitory concentration (MIC)
Experimental: as §1

[13] = tested on: Staphylococcus aureus No. 50774; experiment: as above; assay type: cell-based
Experimental: as §1

[14] = tested on: Staphylococcus aureus No. 80; experiment: as above; assay type: cell-based
Experimental: as §1

[15] = tested on: Staphylococcus aureus Smith; experiment: as above; assay type: cell-based; details: read-out: minimum inhibitory concentration (MIC)
Experimental: as §1

[16] = tested on: Staphylococcus epidermidis No. 8; experiment: as above; assay type: cell-based
Experimental: as §1

[17] = tested on: Streptococcus faecalis P-2473; experiment: as above; assay type: cell-based; details: Enterococcus faecalis, P2473, read-out: minimum inhibitory concentration (MIC)
Experimental: as §1

[18] = tested on: Streptococcus pyogenes 65A; experiment: as above; assay type: cell-based; details: read-out: minimum inhibitory concentration (MIC)
Experimental: as §1

Escherichia coli P-5101 [19] = experiment: In vivo efficacy against systemic infections in mice (intraperitoneal infection); parameters: species or system male mice (ddY); details: P5101, 168 h, po, twice, about 5 minutes and 6 hours after intraperitoneal infection, observed 7 days
Experimental: (§2) Each of the solutions was orally administered to mice infected with each of test organisms under the conditions described below, and the medium effective doses (ED50) obtained are shown in Table II. Male mice (ddY) weighing about 20 g (3) Escherichia coli P-5101: Intraperitoneal infection with about 9×10^6 cells per mouse suspended in trypto-soy broth with 4% mucin. Twice, about 5 minutes and 6 hours after infection. |Escherichia coli P-5101 for 7 days | The numerals in the table show ED50 (mg/kg). ED50 values were | calculated in accordance with the BehrensKaerber method (Arch. Exp. Path. | Pharm., 162, 480 (1931)). | po: oral administration.

[20] = tested on: Pseudomonas aeruginosa No. 12; experiment: as above; parameters: species or system male mice (ddY); details: NO.12, 168 h, po, twice, about 5 minutes and 6 hours after intraperitoneal infection, observed 7 days
Experimental: as §2, with “(4) Pseudomonas aeruginosa No. 12:” for “(3) Escherichia coli P-5101:”, “5×10^3” for “9×10^6”, “days |Pseudomonas aeruginosa No. 12” for “days”

[21] = Corynebacterium pyogenes, C21, read-out: minimum inhibitory concentration (MIC)
[22] = P2540, Enterobacter cloacae P-2540, agar dilution, read-out: minimum inhibitory concentration (MIC)
[23] = NIHJJC2, Escherichia coli NIHJ JC-2, agar dilution, read-out: minimum inhibitory concentration (MIC)
[24] = P140A, Escherichia coli P-140a, agar dilution
[25] = P5101, Escherichia coli P-5101, agar dilution, read-out: minimum inhibitory concentration (MIC)
[26] = Klebsiella pneumoniae No. 13, agar dilution, read-out: minimum inhibitory concentration (MIC)
[27] = P2381, Proteus mirabilis P-2381, agar dilution, read-out: minimum inhibitory concentration (MIC)
[28] = Proteus morganii Kono, agar dilution
[29] = Pseudomonas aeruginosa, NO.12, read-out: minimum inhibitory concentration (MIC)
[30] = Salmonella typhimurium S-9, agar dilution
[31] = IFO3736, Serratia marcescens IFO 3736, agar dilution, read-out: minimum inhibitory concentration (MIC)
[32] = Staphylococcus aureus, NO.50774, read-out: minimum inhibitory concentration (MIC)
[33] = Staphylococcus aureus No. 80, agar dilution, read-out: minimum inhibitory concentration (MIC)
[34] = Staphylococcus epidermidis No. 8, agar dilution, read-out: minimum inhibitory concentration (MIC)
[35] = C21, Corynebacterium pyogenes C-21, agar dilution, read-out: minimum inhibitory concentration (MIC)
[36] = Pseudomonas aeruginosa No. 12, agar dilution, read-out: minimum inhibitory concentration (MIC)
[37] = Pseudomonas aeruginosa Tsuchiijima, agar dilution
[38] = Salmonella enteritidis No. 1891, agar dilution
[39] = Staphylococcus aureus 209P JC-1, agar dilution
[40] = Staphylococcus aureus No. 50774, agar dilution, read-out: minimum inhibitory concentration (MIC)
[41] = Staphylococcus aureus Smith, agar dilution
[42] = Streptococcus pyogenes 65A, agar dilution
[43] = Enterobacter cloacae, P2540, read-out: minimum inhibitory concentration (MIC)
[44] = Escherichia coli, NIHJJC2, read-out: minimum inhibitory concentration (MIC)
[45] = Klebsiella pneumoniae, NO.13, read-out: minimum inhibitory concentration (MIC)
[46] = Serratia marcescens, IFO3736, read-out: minimum inhibitory concentration (MIC)
[47] = Staphylococcus aureus, NO.80, read-out: minimum inhibitory concentration (MIC)
[48] = Staphylococcus epidermidis, NO.8, read-out: minimum inhibitory concentration (MIC)
[49] = Escherichia coli, P5101, read-out: minimum inhibitory concentration (MIC)

Row | Structure (SMILES) | MIC [2, 22] [µg/mL] | MIC [3, 23] [µg/mL] | MIC (Escherichia coli P-140a; [24]) [µg/mL] | MIC (Escherichia coli P-5101 [4]; [25]) [µg/mL] | MIC [5, 26] [µg/mL] | MIC (Proteus mirabilis P-2381; [27]) [µg/mL] | MIC (Proteus morganii Kono; [28]) [µg/mL] | MIC [6, 29] [µg/mL] | MIC ([7]; Pseudomonas aeruginosa) [µg/mL] | MIC [9, 30] [µg/mL] | MIC [10, 31] [µg/mL] | MIC (Shigella flexneri 2a) [µg/mL] | MIC [11] [µg/mL] | MIC ([12]; Staphylococcus aureus, 209P) [µg/mL] | MIC [13, 32] [µg/mL] | MIC ([15]; Staphylococcus aureus) [µg/mL] | MIC [17] [µg/mL] | MIC ([18]; Streptococcus pyogenes, 65A) [µg/mL] | MIC [1, 35] [µg/mL] | MIC [8, 38] [µg/mL] | further results
1 | CCn1cc(C(=O)O)c(=O)c2ccc(N3CCCC3)nc21 [Compound A, 1-Ethyl-1,4-dihydro-4-oxo-7-(1-pyrrolidinyl)-1,8-naphthyridine-3-carboxylicacid] | > 200 | 25 (≈ 87 µM) | 3.13 (≈ 10.9 µM) | 50 (≈ 174 µM) | > 200 | > 200 | > 200 | > 200 | > 200 | 50 (≈ 174 µM) | > 200 | > 200 | 6.25 (≈ 21.8 µM) | 12.5 (≈ 43.5 µM) | 6.25 (≈ 21.8 µM) | 6.25 (≈ 21.8 µM) | > 200 | > 200 |  |  | MIC [1, 21]: > 200 µg/mL; MIC ([8]; ENTERITIDIS): 6.25 µg/mL (≈ 21.8 µM); MIC [14, 33]: 3.13 µg/mL (≈ 10.9 µM); MIC [16, 34]: 3.13 µg/mL (≈ 10.9 µM)
2 | CCn1cc(C(=O)O)c(=O)c2cc(Cl)c(N3CCCC3)nc21 [Compound B, 6-Chloro-1-ethyl-1,4-dihydro-4-oxo-7-(1-pyrrolidinyl)-1,8-naphthyridine-3-carboxylic acid] | 50 (≈ 155 µM) | 50 (≈ 155 µM) | 50 (≈ 155 µM) | 50 (≈ 155 µM) | > 100 | > 100 | > 100 |  |  | 50 (≈ 155 µM) | > 100 | 50 (≈ 155 µM) | > 100 |  |  |  | > 200 |  | 50 (≈ 155 µM) | 25 (≈ 77.7 µM) | MIC [6, 36]: > 100 µg/mL; MIC [7, 37]: > 100 µg/mL; MIC [12, 39]: 12.5 µg/mL (≈ 38.8 µM); MIC [13, 40]: 6.25 µg/mL (≈ 19.4 µM); MIC [14, 33]: 6.25 µg/mL (≈ 19.4 µM); MIC [15, 41]: 6.25 µg/mL (≈ 19.4 µM); MIC [16, 34]: 3.13 µg/mL (≈ 9.73 µM); MIC [18, 42]: 50 µg/mL (≈ 155 µM)
3 | CCn1cc(C(=O)O)c(=O)c2cc(F)c(N3CCCC3)nc21 [Compound C, 1-Ethyl-6-fluoro-1,4-dihydro-4-oxo-7-(1-pyrrolidinyl)-1,8-naphthyridine-3-carboxylic acid] |  |  | 0.78 (≈ 2.55 µM) | 0.78 (≈ 2.55 µM) |  | 6.56 (≈ 21.5 µM) |  | 3.13 (≈ 10.3 µM) | 3.13 (≈ 10.3 µM) | 0.78 (≈ 2.55 µM) |  | 1.56 (≈ 5.11 µM) | 3.13 (≈ 10.3 µM) |  |  |  | 6.25 (≈ 20.5 µM) | 3.13 (≈ 10.3 µM) | 0.78 (≈ 2.55 µM) | 0.39 (≈ 1.28 µM) | MIC [2, 43]: 1.56 µg/mL (≈ 5.11 µM); MIC [3, 44]: 1.56 µg/mL (≈ 5.11 µM); MIC [5, 45]: 1.56 µg/mL (≈ 5.11 µM); MIC (Proteus morganii Kono): 1.56 µg/mL (≈ 5.11 µM); MIC [10, 46]: 3.13 µg/mL (≈ 10.3 µM); MIC [12, 39]: 0.39 µg/mL (≈ 1.28 µM); MIC [13, 40]: 0.2 µg/mL (≈ 0.655 µM); MIC [14, 47]: 0.2 µg/mL (≈ 0.655 µM); MIC [15, 41]: 0.39 µg/mL (≈ 1.28 µM); MIC [16, 48]: 0.39 µg/mL (≈ 1.28 µM); ED50 (Escherichia coli P-5101 [19]): > 50 mg/kg; ED50 [20]: > 100 mg/kg
4 | CCn1cc(C(=O)O)c(=O)c2ccc(C)nc21 [Compound D, 1-Ethyl-1,4-dihydro-7-methyl-4-oxo-1,8-naphthyridine-3-carboxylic acid] |  |  | 1.56 (≈ 6.72 µM) |  |  |  |  | 200 (≈ 861 µM) | 200 (≈ 861 µM) |  |  | 6.25 (≈ 26.9 µM) | 3.13 (≈ 13.5 µM) | 100 (≈ 431 µM) | 50 (≈ 215 µM) | 25 (≈ 108 µM) | > 200 | > 200 |  |  | MIC [1, 21]: > 200 µg/mL; MIC [2, 43]: 6.25 µg/mL (≈ 26.9 µM); MIC [3, 44]: 12.5 µg/mL (≈ 53.8 µM); MIC (Escherichia coli P-5101 [4]; [49]): 3.13 µg/mL (≈ 13.5 µM); MIC [5, 45]: 12.5 µg/mL (≈ 53.8 µM); MIC (Proteus mirabilis P-2381; Proteus mirabilis, P2381, read-out: minimum inhibitory concentration (MIC)): 6.25 µg/mL (≈ 26.9 µM); MIC (Proteus morganii Kono): 6.25 µg/mL (≈ 26.9 µM); MIC ([8]; ENTERITIDIS): 3.13 µg/mL (≈ 13.5 µM); MIC ([9]; TYPHIMURIUM): 3.13 µg/mL (≈ 13.5 µM); MIC [10, 46]: 6.25 µg/mL (≈ 26.9 µM); MIC [14, 47]: 25 µg/mL (≈ 108 µM); MIC [16, 48]: 25 µg/mL (≈ 108 µM)
5 | CCn1cc(C(=O)O)c(=O)c2cnc(N3CCCC3)nc21 [Compound E, 8-Ethyl-5,8-dihydro-5-oxo-2-(1-pyrrolidinyl)pyrido[2,3-d]pyrimidine-6-carboxylic acid] | 25 (≈ 86.7 µM) | 25 (≈ 86.7 µM) |  |  | 25 (≈ 86.7 µM) | 50 (≈ 173 µM) | 25 (≈ 86.7 µM) |  |  | 25 (≈ 86.7 µM) | 50 (≈ 173 µM) | 12.5 (≈ 43.4 µM) | 12.5 (≈ 43.4 µM) | 12.5 (≈ 43.4 µM) | 12.5 (≈ 43.4 µM) | 12.5 (≈ 43.4 µM) | > 200 |  | 25 (≈ 86.7 µM) | 25 (≈ 86.7 µM) | MIC (Escherichia coli P-140a; Escherichia coli): 12.5 µg/mL (≈ 43.4 µM); MIC (Escherichia coli P-5101 [4]; [49]): 12.5 µg/mL (≈ 43.4 µM); MIC [6, 36]: 100 µg/mL (≈ 347 µM); MIC [7, 37]: 100 µg/mL (≈ 347 µM); MIC [14, 47]: 12.5 µg/mL (≈ 43.4 µM); MIC [16, 48]: 12.5 µg/mL (≈ 43.4 µM); MIC [18, 42]: 200 µg/mL (≈ 694 µM)
